Results published in the supplement of paper PMC10307832.

Experiments:
Experiment in all cases: relative viability (nuclei count vs DMSO), 5 days (fraction); higher = more cells survive
HCC-366 = tested on: HCC-366
Procedure, shortened: (§1)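 Each reported value is a median over duplicate plates. It expresses relative viability: treated-well nuclei count divided by vehicle-well nuclei count. Lung cancer cell lines in 1536-well plates were dosed by pin tool a day after seeding, alone with one drug or with a fixed anchor-drug dose plus five library-drug doses (not always all listed) in √10 steps, and nuclei were counted after 5 days.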

NCI-H460 = tested on: NCI-H460
Procedure, shortened: as §1

NCI-H1651 = tested on: NCI-H1651
Procedure, shortened: as §1

NCI-H1755 = tested on: NCI-H1755
Procedure, shortened: as §1

ABC-1 = tested on: ABC-1
Procedure, shortened: as §1

NCI-H2228 = tested on: NCI-H2228
Procedure, shortened: as §1

CAL-12T = tested on: CAL-12T
Procedure, shortened: as §1

PC-3 [JPC-3] = tested on: PC-3 [JPC-3]
Procedure, shortened: as §1

NCI-H2405 = tested on: NCI-H2405
Procedure, shortened: as §1

LOU-NH91 = tested on: LOU-NH91
Procedure, shortened: as §1

RERF-LC-KJ = tested on: RERF-LC-KJ
Procedure, shortened: as §1

NCI-H2170 = tested on: NCI-H2170
Procedure, shortened: as §1

NCI-H2087 = tested on: NCI-H2087
Procedure, shortened: as §1

UMC-11 = tested on: UMC-11
Procedure, shortened: as §1

NCI-H3122 = tested on: NCI-H3122
Procedure, shortened: as §1

NCI-H1734 = tested on: NCI-H1734
Procedure, shortened: as §1

NCI-H1395 = tested on: NCI-H1395
Procedure, shortened: as §1

NCI-H1944 = tested on: NCI-H1944
Procedure, shortened: as §1

NCI-H1793 = tested on: NCI-H1793
Procedure, shortened: as §1

HCC-78 = tested on: HCC-78
Procedure, shortened: as §1

LC-2-ad = tested on: LC-2-ad
Procedure, shortened: as §1

LU99A = tested on: LU99A
Procedure, shortened: as §1

## C=C1C(=O)O[C@@H](CCCCCCCC)[C@@H]1C(=O)O [C-75] + Cc1nc(NC(=O)N2CCC[C@H]2C(N)=O)sc1-c1ccnc(C(C)(C)C(F)(F)F)c1 [Alpelisib] (partner 2 µM)
HCC-366; first compound 0.08 µM
  relative viability: 0.502
HCC-366; first compound 0.253 µM
  relative viability: 0.48
HCC-366; first compound 0.8 µM
  relative viability: 0.381
HCC-366; first compound 8 µM
  relative viability: 0.404
NCI-H460; first compound 0.08 µM
  relative viability: 0.517
NCI-H460; first compound 0.253 µM
  relative viability: 0.485
NCI-H460; first compound 0.8 µM
  relative viability: 0.475
NCI-H460; first compound 8 µM
  relative viability: 0.374
NCI-H1651; first compound 0.08 µM
  relative viability: 0.871
NCI-H1651; first compound 0.253 µM
  relative viability: 0.988
NCI-H1651; first compound 0.8 µM
  relative viability: 1.02
NCI-H1651; first compound 2.53 µM
  relative viability: 0.793
NCI-H1651; first compound 8 µM
  relative viability: 0.882
NCI-H1755; first compound 0.08 µM
  relative viability: 0.938
NCI-H1755; first compound 0.253 µM
  relative viability: 0.823
NCI-H1755; first compound 0.8 µM
  relative viability: 0.913
NCI-H1755; first compound 2.53 µM
  relative viability: 0.739
NCI-H1755; first compound 8 µM
  relative viability: 0.919
ABC-1; first compound 0.08 µM
  relative viability: 0.983
ABC-1; first compound 0.253 µM
  relative viability: 1.12
ABC-1; first compound 0.8 µM
  relative viability: 0.879
ABC-1; first compound 2.53 µM
  relative viability: 0.991
ABC-1; first compound 8 µM
  relative viability: 0.585
NCI-H2228; first compound 0.08 µM
  relative viability: 0.751
NCI-H2228; first compound 0.253 µM
  relative viability: 1.01
NCI-H2228; first compound 0.8 µM
  relative viability: 0.73
NCI-H2228; first compound 2.53 µM
  relative viability: 0.604
NCI-H2228; first compound 8 µM
  relative viability: 0.744
CAL-12T; first compound 0.08 µM
  relative viability: 1.19
CAL-12T; first compound 0.253 µM
  relative viability: 1.47
CAL-12T; first compound 0.8 µM
  relative viability: 1.12
CAL-12T; first compound 8 µM
  relative viability: 1.33
PC-3 [JPC-3]; first compound 0.08 µM
  relative viability: 1.02
PC-3 [JPC-3]; first compound 0.253 µM
  relative viability: 0.981
PC-3 [JPC-3]; first compound 0.8 µM
  relative viability: 1.07
PC-3 [JPC-3]; first compound 2.53 µM
  relative viability: 1.09
PC-3 [JPC-3]; first compound 8 µM
  relative viability: 1.12
NCI-H2405; first compound 0.08 µM
  relative viability: 0.833
NCI-H2405; first compound 0.253 µM
  relative viability: 0.481
NCI-H2405; first compound 0.8 µM
  relative viability: 0.703
NCI-H2405; first compound 2.53 µM
  relative viability: 0.884
NCI-H2405; first compound 8 µM
  relative viability: 0.816
LOU-NH91; first compound 0.08 µM
  relative viability: 0.771
LOU-NH91; first compound 0.253 µM
  relative viability: 0.643
LOU-NH91; first compound 0.8 µM
  relative viability: 0.719
LOU-NH91; first compound 2.53 µM
  relative viability: 0.744
LOU-NH91; first compound 8 µM
  relative viability: 0.723
RERF-LC-KJ; first compound 0.08 µM
  relative viability: 0.834
RERF-LC-KJ; first compound 0.253 µM
  relative viability: 0.875
RERF-LC-KJ; first compound 0.8 µM
  relative viability: 0.817
RERF-LC-KJ; first compound 2.53 µM
  relative viability: 0.765
RERF-LC-KJ; first compound 8 µM
  relative viability: 0.979
NCI-H2170; first compound 0.08 µM
  relative viability: 0.796
NCI-H2170; first compound 0.253 µM
  relative viability: 0.779
NCI-H2170; first compound 0.8 µM
  relative viability: 0.776
NCI-H2170; first compound 2.53 µM
  relative viability: 0.741
NCI-H2170; first compound 8 µM
  relative viability: 0.713
NCI-H2087; first compound 0.08 µM
  relative viability: 1.07
NCI-H2087; first compound 0.253 µM
  relative viability: 0.921
NCI-H2087; first compound 0.8 µM
  relative viability: 1.02
NCI-H2087; first compound 2.53 µM
  relative viability: 0.682
NCI-H2087; first compound 8 µM
  relative viability: 0.934
UMC-11; first compound 0.08 µM
  relative viability: 0.927
UMC-11; first compound 0.253 µM
  relative viability: 1.15
UMC-11; first compound 0.8 µM
  relative viability: 0.97
UMC-11; first compound 2.53 µM
  relative viability: 0.909
UMC-11; first compound 8 µM
  relative viability: 0.786
NCI-H3122; first compound 0.08 µM
  relative viability: 0.767
NCI-H3122; first compound 0.253 µM
  relative viability: 0.922
NCI-H3122; first compound 0.8 µM
  relative viability: 0.765
NCI-H3122; first compound 8 µM
  relative viability: 0.801
NCI-H1734; first compound 0.08 µM
  relative viability: 0.691
NCI-H1734; first compound 0.253 µM
  relative viability: 0.609
NCI-H1734; first compound 0.8 µM
  relative viability: 0.69
NCI-H1734; first compound 2.53 µM
  relative viability: 0.447
NCI-H1734; first compound 8 µM
  relative viability: 0.631
NCI-H1395; first compound 0.08 µM
  relative viability: 1.05
NCI-H1395; first compound 0.253 µM
  relative viability: 1.13
NCI-H1395; first compound 0.8 µM
  relative viability: 1.07
NCI-H1395; first compound 2.53 µM
  relative viability: 0.868
NCI-H1395; first compound 8 µM
  relative viability: 1.28
NCI-H1944; first compound 0.08 µM
  relative viability: 0.824
NCI-H1944; first compound 0.253 µM
  relative viability: 0.655
NCI-H1944; first compound 0.8 µM
  relative viability: 0.916
NCI-H1944; first compound 8 µM
  relative viability: 0.818
NCI-H1793; first compound 0.08 µM
  relative viability: 0.72
NCI-H1793; first compound 0.253 µM
  relative viability: 0.723
NCI-H1793; first compound 0.8 µM
  relative viability: 0.585
NCI-H1793; first compound 2.53 µM
  relative viability: 0.708
NCI-H1793; first compound 8 µM
  relative viability: 0.816
HCC-78; first compound 0.08 µM
  relative viability: 0.297
HCC-78; first compound 0.253 µM
  relative viability: 0.318
HCC-78; first compound 0.8 µM
  relative viability: 0.354
HCC-78; first compound 2.53 µM
  relative viability: 0.336
HCC-78; first compound 8 µM
  relative viability: 0.408
LC-2-ad; first compound 0.08 µM
  relative viability: 0.838
LC-2-ad; first compound 0.253 µM
  relative viability: 0.822
LC-2-ad; first compound 0.8 µM
  relative viability: 0.828
LC-2-ad; first compound 8 µM
  relative viability: 0.891
LU99A; first compound 0.08 µM
  relative viability: 0.537
LU99A; first compound 0.253 µM
  relative viability: 0.547
LU99A; first compound 0.8 µM
  relative viability: 0.516
LU99A; first compound 2.53 µM
  relative viability: 0.483
LU99A; first compound 8 µM
  relative viability: 0.389
